# Assay results as given in patent US8461305B2, “L-fucose α1→6 specific lectin” (J-Oil Mills, Inc., priority 2008, dated 2013).
# Legend:
# [1] = frontal affinity chromatography (FAC), association constant to PA sugar chains having other L-fucose; type: binding; conditions: for association constant Ka: 25 degrees C.; for binding to non-L-fucose α1→6 sugar chain: FAC
# Method: The following section will describe a method of calculating an association constant by frontal affinity chromatography (FAC). This method is based on the following principle. […] Then, the elution front end (front) is observed immediately. When there is an affinity with lectin, the elution of the sugar chain is delayed.
# The preparation of a lectin column used in the apparatus is performed in the method as described below. 1. Purified lectin is dissolved in 0.1 to 0.2M of NaHCO3 buffer solution (pH 8.3 to 8.5). 2. The lectin is immobilized, via a lectin primary amino group, a carrier such as NHS activated sepharose. 3. Then, the lectin is blocked by Tris buffer solution including primary amine or ethanolamine for example. 4. Lectin-sepharose is suspended in 10 mM Tris buffer, including 0.8% of NaCl (pH 7.4, TBS). Then, lectin immobilized resin is filled in a miniature column (φ2 mm×10 mm, 31.4 μl). 5. The miniature column in which the lectin immobilized resin is filled is protected by a holder and the lectin column is connected to an FAC automatic analysis apparatus (FAC-1, SHIMADZU CORPORATION).
# Then, the elution of the PA sugar chain from the column is detected by a fluorescence detector (excitation wavelength/fluorescence wavelength: 310 nm/380 nm).
# Based on the detection data, by using the elution front end (Vo) of the sugar chain (PA rhamnose) not interacting with lectin as a reference, the delay (V−Vo) of the elution front end (V) of a sugar chain interacting with lectin is calculated as an interaction strength. Then, based on the following FAC criteria expressions, the association constant (Ka) between the sugar chain and lectin is calculated based on V−Vo and Bt. If the interaction strength (V−Vo value) and the association constant are higher, a higher affinity is caused between lectin and an L-fucose α1→6 sugar chain.
# [In the formula, A means substance used for the elution, Ao means the initial concentration of the substance A, B means a immobilized ligand, V means the elution volume, Vo means the elution front end volume of the substance not interacting with the immobilized ligand B at all, Bt means an effective ligand amount, Kd means a dissociation constant (an inverse of the association constant)].
# Pyridylaminated (PA) sugar chains shown in FIG. 1 and FIG. 2 were used to frontal affinity chromatography (FAC) analysis. PA sugars were purchased from TAKARA BIO INC., SEIKAGAKU BIOBUSINESS CORPORATION, and Masuda Chemical Industries co., LTD. PA sugar were also obtained by pyridylaminating, by GlycoTAG®(TAKARA BIO INC.), an unlabeled sugar chain or a sugar chain obtained by subjecting a sugar chain to enzyme digestion for example.
# Lectin was dissolved in 0.2 M NaHCO3 buffer solution (pH 8.3) including 0.5 M NaCl and coupled to the NHS-activated sepharose (GE Healthcare Bioscience) by following the manufacturer's instructions. Then, lectin immobilized sepharose was suspended in 10 mM Tris buffer (pH 7.4, TBS) including […] and the resultant matter was filled in a miniature column (φ2 mm×10 mm, 31.4 μl).
# Frontal affinity chromatography was performed using FAC automatic analysis apparatus (FAC-1, SHIMADZU CORPORATION). In particular, the above-prepared lectin column was inserted to a stainless steel holder and the holder was connected to FAC-1 apparatus. The flow rate and the column temperature were maintained at 0.125 ml/min and 25 degrees C., respectively. After the miniature column was equilibrated by the TBS, an excessive volume (0.5 ml to 4 ml) of a PA sugar chain (3.75 nM or 7.5 nM) was continuously inputted to the column using an automatic sampling apparatus.
# The fluorescent strength of the eluate of the PA sugar (excitation wavelength of 310 nm and fluorescence wavelength of 380 nm) was monitored to measure the interaction strength [a difference of the front end eluate to the standard oligosaccharide (PA rhamnose): V−V0]. […]
# [2] = hemagglutinating inhibition test with sugars (sugar binding specificity); type: cell-based
# Source text: The sugar binding specificity of lectin also can be confirmed by using erythrocytes that can be specifically agglutinated by the lectin to investigate the sugar type that may inhibit the agglutination of the erythrocytes and the concentration thereof.
# Various monosaccharides, oligosaccharides, and polysaccharides shown in Table 2 and glycoproteins shown in Table 3 were subjected to hemagglutinating inhibition test to evaluate PTL of Example 1 and the SRL of Example 2 with regard to the sugar binding specificity.
# On a 96 well U-bottom microtiter plate, double dilution series of 10 μl of monosaccharide, oligosaccharide, polysaccharide, and glycoprotein solutions were prepared. Then, lectin solution adjusted in advance to have titer 4 was added in an amount of 10 μl to the respective wells. Then, the plate was subjected to a still-standing at a room temperature for one hour for sensitization. Then, 10 μl of 4%-red blood cell suspension was added to the respective wells and the plate was further subjected to a still-standing at a room temperature for one hour. […] The lowest concentration showing the inhibition was assumed as the minimum inhibition concentration. The lower the minimum inhibition concentration is, the higher the specificity to lectin is.
# For comparison, the sugar binding specificity was evaluated using the following commercially-available lectins: Comparison Example 1: AAL (SEIKAGAKU BIOBUSINESS CORPORATION—J-OIL MILLS, Inc.), Comparison Example 2: AOL (TOKYO CHEMICAL INDUSTRY CO., LTD.—Gekkeikan Sake Company, Ltd.), Comparison Example 3: LCA (SEIKAGAKU BIOBUSINESS CORPORATION—J-OIL MILLS, Inc.), and Comparison Example 4: PSA (SEIKAGAKU BIOBUSINESS CORPORATION—J-OIL MILLS, Inc.).
# [3] = Sugar chain No. 728 (as listed in Table 5/12)
Substance,association constant Ka ([1]; Sugar chain No. 419),association constant Ka ([1]; Sugar chain No. 420),association constant Ka ([1]; Sugar chain No. 718),association constant Ka ([1]; Sugar chain No. 719),association constant Ka ([1]; Sugar chain No. 720),association constant Ka ([1]; Sugar chain No. 721),association constant Ka ([1]; Sugar chain No. 722),association constant Ka ([1]; Sugar chain No. 723),association constant Ka ([1]; Sugar chain No. 726),association constant Ka ([1]; Sugar chain No. 727),"association constant Ka [1, 3]",association constant Ka ([1]; Sugar chain No. 729),association constant Ka ([1]; Sugar chain No. 730),association constant Ka ([1]; Sugar chain No. 731),association constant Ka ([1]; Sugar chain No. 739),association constant Ka ([1]; Sugar chain No. 909),association constant Ka ([1]; Sugar chain No. 910),association constant Ka ([1]; Sugar chain No. 931),association constant Ka ([1]; Sugar chain No. 932),association constant Ka ([1]; Sugar chain No. 933),other results
"Aspergillus oryzae lectin [AOL, reference compound]",<1000 M⁻¹,<1000 M⁻¹,170000 M⁻¹,<1000 M⁻¹,<1000 M⁻¹,<1000 M⁻¹,56000 M⁻¹,<1000 M⁻¹,<1000 M⁻¹,76000 M⁻¹,12000 M⁻¹,<1000 M⁻¹,<1000 M⁻¹,<1000 M⁻¹,<1000 M⁻¹,44000 M⁻¹,56000 M⁻¹,99000 M⁻¹,<1000 M⁻¹,31000 M⁻¹,minimum inhibition concentration of hemagglutination ([2]; inhibitor: Fructose): 25 mM; minimum inhibition concentration of hemagglutination ([2]; inhibitor: Galactose): >100 mM; minimum inhibition concentration of hemagglutination ([2]; inhibitor: Glucose): >100 mM; minimum inhibition concentration of hemagglutination ([2]; inhibitor: L-fucose): 0.391 mM; minimum inhibition concentration of hemagglutination ([2]; inhibitor: Lactose): >6 mM; minimum inhibition concentration of hemagglutination ([2]; inhibitor: Maltose): >100 mM; minimum inhibition concentration of hemagglutination ([2]; inhibitor: Mannose): 100 mM; minimum inhibition concentration of hemagglutination ([2]; inhibitor: Melibiose): >100 mM; minimum inhibition concentration of hemagglutination ([2]; inhibitor: Metyl α-mannoside): >100 mM; minimum inhibition concentration of hemagglutination ([2]; inhibitor: N-Acetylneuraminic acid): >100 mM; minimum inhibition concentration of hemagglutination ([2]; inhibitor: N-acetylgalactosamine): >100 mM; minimum inhibition concentration of hemagglutination ([2]; inhibitor: N-acetylglucosamine): >100 mM; minimum inhibition concentration of hemagglutination ([2]; inhibitor: N-glycolylneuraminic acid): >100 mM; minimum inhibition concentration of hemagglutination ([2]; inhibitor: Raffinose): >100 mM; minimum inhibition concentration of hemagglutination ([2]; inhibitor: Rhamnose): 100 mM; minimum inhibition concentration of hemagglutination ([2]; inhibitor: Serial lactose): >6 mM; minimum inhibition concentration of hemagglutination ([2]; inhibitor: Sucrose): >100 mM; minimum inhibition concentration of hemagglutination ([2]; inhibitor: Xylose): >100 mM
"Lepista sordida lectin [LSL, novel lectin purified from the mushroom Lepista sordida]",<1000 M⁻¹,<1000 M⁻¹,<1000 M⁻¹,<1000 M⁻¹,<1000 M⁻¹,<1000 M⁻¹,<1000 M⁻¹,<1000 M⁻¹,<1000 M⁻¹,<1000 M⁻¹,<1000 M⁻¹,<1000 M⁻¹,<1000 M⁻¹,<1000 M⁻¹,<1000 M⁻¹,<1000 M⁻¹,<1000 M⁻¹,<1000 M⁻¹,<1000 M⁻¹,<1000 M⁻¹,binding to non-L-fucose α1→6 sugar chain [1]: not detected at all
Naematoloma sublateritium lectin [NSL],<1000 M⁻¹,<1000 M⁻¹,<1000 M⁻¹,<1000 M⁻¹,<1000 M⁻¹,<1000 M⁻¹,<1000 M⁻¹,<1000 M⁻¹,<1000 M⁻¹,<1000 M⁻¹,<1000 M⁻¹,<1000 M⁻¹,<1000 M⁻¹,<1000 M⁻¹,<1000 M⁻¹,<1000 M⁻¹,<1000 M⁻¹,<1000 M⁻¹,<1000 M⁻¹,<1000 M⁻¹,binding to non-L-fucose α1→6 sugar chain [1]: not detected at all
